Data as given in ChEMBL document CHEMBL5518238, “Structure-Activity Relationship (SAR) Studies of Novel Monovalent AR/AR-V7 Dual Degraders with Potent Efficacy against Advanced Prostate Cancer” (J Med Chem, 2024).
Calls of active or inactive are those of the source. No cut-off for these calls is given here.

Columns and labels:
[1] = Half life in Sprague-Dawley rat at 50 mg/kg, po by LC-MS/MS analysis; format: ADME, organism-based; conditions: in vivo
[2] = target: T1, Androgen receptor (Homo sapiens) (UniProt P10275); test: Induction of AR degradation in human 22Rv1 cells at 20 uM incubated for 24 hrs in presence of Bortezomib by Western blot analysis; format: cell-based
T1 sequence (whole entry): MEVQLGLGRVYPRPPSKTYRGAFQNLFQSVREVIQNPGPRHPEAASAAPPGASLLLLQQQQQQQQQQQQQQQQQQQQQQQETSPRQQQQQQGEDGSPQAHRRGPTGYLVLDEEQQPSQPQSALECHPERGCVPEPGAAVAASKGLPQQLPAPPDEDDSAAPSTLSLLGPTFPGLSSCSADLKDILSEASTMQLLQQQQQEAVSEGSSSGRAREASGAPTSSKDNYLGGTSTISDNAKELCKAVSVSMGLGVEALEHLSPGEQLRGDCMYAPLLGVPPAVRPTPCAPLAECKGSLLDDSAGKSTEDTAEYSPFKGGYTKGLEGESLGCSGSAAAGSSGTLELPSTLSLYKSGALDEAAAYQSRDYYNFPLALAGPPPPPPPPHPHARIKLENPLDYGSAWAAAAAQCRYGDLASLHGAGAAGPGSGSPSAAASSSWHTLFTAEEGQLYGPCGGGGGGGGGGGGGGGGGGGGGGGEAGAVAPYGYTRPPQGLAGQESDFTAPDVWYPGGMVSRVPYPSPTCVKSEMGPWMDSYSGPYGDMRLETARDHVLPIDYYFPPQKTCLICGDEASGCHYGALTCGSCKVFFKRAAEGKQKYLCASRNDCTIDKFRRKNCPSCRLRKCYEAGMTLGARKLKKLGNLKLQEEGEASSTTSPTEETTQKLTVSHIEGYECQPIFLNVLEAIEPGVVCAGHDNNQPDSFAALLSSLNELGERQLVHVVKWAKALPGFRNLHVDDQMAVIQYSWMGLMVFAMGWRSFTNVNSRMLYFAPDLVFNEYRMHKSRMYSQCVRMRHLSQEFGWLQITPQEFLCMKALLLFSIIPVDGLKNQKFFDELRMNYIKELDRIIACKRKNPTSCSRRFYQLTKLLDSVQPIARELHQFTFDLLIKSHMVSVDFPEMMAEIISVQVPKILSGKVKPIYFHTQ

[3] = system: CWR22R; test: Downregulation of NCAPD3 mRNA expression in human 22Rv1 cells at 10 uM incubated for 24 hrs by qRT-PCR analysis; format: functional, cell-based
[4] = system: CWR22R; test: Antitumor activity against human 22Rv1 cells xenografted in NSG mouse assessed as change in tumor volume at 30 mg/kg, IG administered once daily for 21 days; format: functional, organism-based; conditions: time 21.0 day
[5] = Toxicity in NSG mouse xenografted with human 22Rv1 cells assessed as effect on body weight at 30 mg/kg, IG administered once daily for 21 days; format: organism-based, CWR22R; conditions: in vivo, po, 504 h, time 21 day
[6] = Volume of distribution at steady state in Sprague-Dawley rat at 5 mg/kg, iv by LC-MS/MS analysis; format: ADME, organism-based; conditions: in vivo
[7] = system: CWR22R; test: Downregulation of KLK2 mRNA expression in human 22Rv1 cells incubated for 24 hrs by qRT-PCR analysis; format: functional, cell-based; conditions: dose 5-10 µM
[8] = system: CWR22R; test: Effect on ER level in human 22Rv1 at 2.5 to 20 uM incubated for 24 hrs by Western blot analysis; format: functional, cell-based; conditions: dose 2.5-20 µM
[9] = system: DU-145; test: Antiproliferative activity against AR-negative human DU-145 cells assessed as inhibition of cell growth incubated for 48 hrs by CCK-8 assay; format: functional, cell-based; conditions: DU-145, 48 h
[10] = system: CWR22R; test: Downregulation of STEAP4 mRNA expression in human 22Rv1 cells at 10 uM incubated for 24 hrs by qRT-PCR analysis; format: functional, cell-based
[11] = system: CWR22R; test: Induction of cell cycle arrest in human 22Rv1 cells assessed as accumulation of cells at G0/G1 phase at 1 uM incubated for 24 hrs by DAPI staining based flow cytometric analysis (reference value: 26.3 %); format: functional
[12] = AUC (0 to infinity) in Sprague-Dawley rat at 5 mg/kg, iv by LC-MS/MS analysis; format: ADME, organism-based; conditions: in vivo
[13] = system: CWR22R; test: Induction of apoptosis in human 22Rv1 cells at 5 uM incubated for 24 hrs by Annexin V-FITC/PI staining based flow cytometric analysis (reference value: 3.70 %); format: functional
[14] = MRT (0 to infinity) in Sprague-Dawley rat at 5 mg/kg, iv by LC-MS/MS analysis; format: ADME, organism-based; conditions: in vivo
[15] = system: CWR22R; test: Downregulation of ABHD2 mRNA expression in human 22Rv1 cells at 10 uM incubated for 24 hrs by qRT-PCR analysis; format: functional, cell-based
[16] = Toxicity in NSG mouse xenografted with human 22Rv1 cells assessed as liver damage t at 30 mg/kg, IG administered once daily for 21 days by H and E staining based analysis; format: organism-based, CWR22R; conditions: in vivo, po, 504 h, time 21 day
[17] = MRT (0 to t) in Sprague-Dawley rat at 50 mg/kg, po by LC-MS/MS analysis; format: ADME, organism-based; conditions: in vivo
[18] = system: CWR22R; test: Downregulation of AR mRNA expression in human 22Rv1 cells at 5 to 10 uM incubated for 12 hrs by qRT-PCR analysis; format: functional, cell-based; conditions: dose 5-10 µM
[19] = system: CWR22R; test: Inhibition of colony formation in human 22Rv1 cells incubated for 2 weeks by crystal violet staining based analysis; format: functional, cell-based; conditions: dose 0.1-5 µM
[20] = system: CWR22R; test: Downregulation of SLC26A2 mRNA expression in human 22Rv1 cells at 10 uM incubated for 24 hrs by qRT-PCR analysis; format: functional, cell-based
[21] = system: CWR22R; test: Downregulation of DHCR24 mRNA expression in human 22Rv1 cells at 10 uM incubated for 24 hrs by qRT-PCR analysis; format: functional, cell-based
[22] = system: CWR22R; test: Downregulation of PEG3 mRNA expression in human 22Rv1 cells at 10 uM incubated for 24 hrs by qRT-PCR analysis; format: functional, cell-based
[23] = Half life in Sprague-Dawley rat at 5 mg/kg, iv by LC-MS/MS analysis; format: ADME, organism-based; conditions: in vivo
[24] = target: T1, Androgen receptor (Homo sapiens); test: Induction of AR degradation in human 22Rv1 cells at 10 uM incubated for 24 hrs in presence of CHX by Western blot analysis; format: cell-based
[25] = Toxicity in NSG mouse xenografted with human 22Rv1 cells assessed as kidney damage t at 30 mg/kg, IG administered once daily for 21 days by H and E staining based analysis; format: organism-based, CWR22R; conditions: in vivo, po, 504 h, time 21 day
[26] = MRT (0 to infinity) in Sprague-Dawley rat at 50 mg/kg, po by LC-MS/MS analysis; format: ADME, organism-based; conditions: in vivo
[27] = system: CWR22R; test: Induction of apoptosis in human 22Rv1 cells assessed as effect on Caspase-3 level incubated for 24 hrs by Western blot analysis; format: functional, cell-based; conditions: dose <= 10.0 µM
[28] = system: CWR22R; test: Induction of apoptosis in human 22Rv1 cells assessed as effect on Bcl-xL level incubated for 24 hrs by Western blot analysis; format: functional, cell-based; conditions: dose <= 10.0 µM
[29] = system: CWR22R; test: Downregulation of P3H3 mRNA expression in human 22Rv1 cells at 10 uM incubated for 24 hrs by qRT-PCR analysis; format: functional, cell-based
[30] = target: T2, Androgen receptor (Homo sapiens, UniProt P10275); test: (§1) Induction of AR degradation in human 22Rv1 cells incubated for 24 hrs by Western blot analysis; format: cell-based
T2 sequence (P10275 whole entry): T1 sequence (whole entry)

[31] = target: T1, Androgen receptor (Homo sapiens); test: as §1; format: cell-based; conditions: dose 1-10 µM

With CC1(C)C(=O)N(c2ccc(C#N)c(C(F)(F)F)c2)C(=O)N1CCNc1ccc(F)c2ncccc12 the half-life [1] was 2.2 h, the Activity [2] was “Active” and the Activity [3] was “Active”. For the same molecule, the Activity [4] was “Active”, the Activity [5] was “Non-Toxic” and the Vdss [6] was 2.5 L/kg. For the same molecule, the Activity [7] was “Dose-Dependent Effect”, the Activity [8] was “Active” and the IC50 [9] was > 50000 nM. For the same molecule, the Activity [10] was “Active”, the Activity [11] was 41.5% and the AUC(0-inf) [12] was 2920 ng·h/mL. For the same molecule, the Activity [13] was 18.81%, the MRT [14] was 4.1 h and the Activity [15] was “Active”. The Activity [16] was “Non-Toxic”, the MRT last [17] was 3.2 h and the Activity [18] was “Active”. The inhibition [19] was “Dose-Dependent Effect”, the Activity [20] was “Active” and the Activity [21] was “Active”. For the same molecule, the Activity [22] was “Active”, the half-life [23] was 1.4 h and the Activity [24] was “Active”. For the same molecule, the Activity [25] was “Non-Toxic”, the MRT inf [26] was 4.1 h and the Activity [27] was “Dose-Dependent Effect”. The Activity [28] was “Dose-Dependent Effect”, the Activity [29] was “Active” and the DC50 [30] was 2670 nM. For the same molecule, the Activity [31] was “Dose-Dependent Effect”.
